Tests used:
thale cress = assay: Plant growth inhibition index, thale cress on agar medium in test tube (Evaluation 8, 9); format: in vivo, thale cress (Col-0, wild-type strain); design: key: 0: No effect; 1: Growth of the root part was inhibited 50% or less compared with non-treated area.; 2: Growth of the root part was inhibited 50% or more compared with non-treated area.; 3: Growth of the root part was substantially inhibited.; 4: Germination was inhibited; settings: for index on the plant growth inhibition effect: 200 μM, 8 days (Evaluation 8); for Index: Concentration 200 μM, 8 days (Evaluation 9, Table 2)
Experimental: 0.44% (w/v) Mixed salts for Murashige and Skoog medium (SIGMA), 1% (w/v) sucrose, and 0.05% (w/v) MES were mixed, and pH of the solution was adjusted to pH 5.7 with potassium hydroxide. 1.5% (w/v) Agar was added to the mixture, which was sterilized at 120° C. in an autoclave for 20 minutes. The test compound and dimethylformamide containing 1.5% of polyoxyethylenesorbitan monolaurate for a control experiment, were added at this stage and blended. In addition, the compound was used by adjusting an addition concentration to 200 μM. Four ml each of the medium was dispensed in sterile glass test tube ([…] RIKA GLASS CO., LTD.) to prepare agar medium.
As a plant material, Col-0, which is a wild-type strain of thale cress, was used.
Seeds, after their surfaces were sterilized, were planted on the agar medium, and the growth of the plant was carried out in a plant incubator (CFH-405) under the conditions of an illuminance of 3 at 23° C. with constant light. The plants on the agar medium were grown for 8 days in the chamber.
The plant growth inhibition effect of the compounds was evaluated by conversion to indexes according to the following investigation criteria.

Japanese bristlegrass = assay: Spray treatment to stems and leaves, killing weed index (Evaluation 10); format: in vivo; settings: 2000 g active ingredient per hectare, two weeks later
Experimental: (§1) POA allyl phenyl ether (4.1 parts by weight), POE-POP glycol (1 part by weight), POE sorbitan laurate (0.8 parts by weight), glycerin (2.6 parts by weight), dimethylformamide (65.9 parts by weight), N-methylpyrrolidone (5.1 parts by weight), cyclohexanone (15.4 parts by weight), and aromatic hydrocarbon (5.1 parts by weight) were mixed and dissolved to prepare an emulsion. The compounds of the present invention (4 mg) were dissolved in this emulsion (100 μL) to prepare a test emulsion. In addition, POA means “polyoxyalkylene”, POE means “polyoxyethylene”, and POP means “polyoxypropylene.”
(§2) Four hundred μL of the above test emulsion was diluted with 7600 μL of water to use as a test spray liquid.
(§3) Further, 400 μL of the above test emulsion was diluted with 1600 μL of a 1% Tween20 aqueous solution to use as a spray liquid for a small amount spray test.
(§4) For a comparative spray liquid, 53 μL of a 30% pendimethalin emulsion (Gogosan emulsion: manufactured by BASF Japan) as a control pesticides was diluted with 7947 μL of water. Further, for a comparative spray liquid for a small amount spray test, 53 μL of the 30% pendimethalin emulsion was diluted with 1947 μL of water.
(§5) A 150 cm^2 pot was filled with a soil, seeds of each purple amaranth, Japanese bristlegrass, southern crabgrass, and velvet leaf were sown on the surface layer, lightly covered with a soil and grown in a greenhouse. When each plant grew to a plant height of 2 to 9 cm, the test spray liquid was sprayed to the stem and leaf parts with a small spraying machine such that an active ingredient amount was 2000 g per hectare and a sprayed liquid amount was 1000 L per hectare.
(§6) Similarly, the test spray liquid for a small amount spray test was sprayed to the stem and leaf parts with a small spraying machine such that an active ingredient amount was 2000 g per hectare and a sprayed liquid amount was 250 L per hectare.
(§7) Two weeks later, the above-ground grass weight in non-treated areas and the above-ground grass weight in treated areas, by the weed, were measured to calculate a killing weed rate by the following calculating formula.
(§8) (a) Calculating Formula of Weeding Rate Killing weed rate (%)=(above-ground grass weight in non-treated area−above-ground grass weight in treated area)/(above-ground grass weight in non-treated area)×100 (b) Killing Weed Indexes
(§9) The obtained killing weed rates were evaluated, such that a killing weed index was “10” when a killing weed rate is 100%, as “9” when a killing weed rate is 99% to 90%, “8” when a killing weed rate is 89% to 80%, “7” when a killing weed rate is 79% to 70%, “6” when a killing weed rate is 69% to 60%, “5” when a killing weed rate is 59% to 50%, “4” when a killing weed rate is 49% to 40%, “3” when a killing weed rate is 39% to 30%, “2” when a killing weed rate is 29% to 20%, “1” when a killing weed rate is 19% to 10%, and “0” when a killing weed rate is 9% to 0%.

purple amaranth = assay: as above; format: in vivo; settings: 2000 g active ingredient per hectare, two weeks later
Experimental: as §1, §2, §3, §4, §5, §6, §7, §8, §9

southern crabgrass = assay: as above; format: in vivo; settings: 2000 g active ingredient per hectare, two weeks later
Experimental: as §1, §2, §3, §4, §5, §6, §7, §8, §9

velvet leaf [1] = assay: as above; format: in vivo; settings: 2000 g active ingredient per hectare, two weeks later
Experimental: as §1, §2, §3, §4, §5, §6, §7, §8, §9

Japanese millet = assay: Seed treatment, plant growth inhibition index (Evaluation 11); format: in vivo; design: key: 0: No effect; 1: Growth of the root part was inhibited 50% or less compared with non-treated area.; 2: Growth of the root part was inhibited 50% or more compared with non-treated area.; 3: Growth of the root part was substantially inhibited.; 4: Germination was inhibited
Experimental: (§10) The compound of the present invention (2 mg) was dissolved in a 1.5% Tween dimethylformamide solution (100 μL) to use as a test chemical solution.
(§11) Eight mL of sterilized water was poured to a cherry cup (100Φ×45 mm) lined with a filter paper, subsequently 81.1 μL of the sterilized water was removed, and 81.1 μL of the test chemical solution was added such that a final concentration of the compound was 800 μM.
(§12) Further, cherry cups were similarly prepared such that a final concentration of the compound was 200 μM.
(§13) Seeds (Japanese millet: 3 grains, velvet leaf: 6 grains, Ragweed: 8 grains, morning glory: 2 grains) were planted on the filter paper in the cherry cups, followed by growing the plants in a thermostatic chamber at 25° C. under a light-dark cycle in which a light period is 12 hours and a dark period is 12 hours for 6 days.
(§14) In addition, with regards to the compound (9a) and the compound (9b), the plants were tested for 7 days.
(§15) Plant growth inhibition effects of the compounds were evaluated by conversion to indexes according to the following investigation criteria.

Ragweed = assay: as above; format: in vivo; design: key: 0: No effect; 1: Growth of the root part was inhibited 50% or less compared with non-treated area.; 2: Growth of the root part was inhibited 50% or more compared with non-treated area.; 3: Growth of the root part was substantially inhibited.; 4: Germination was inhibited
Experimental: as §10, §11, §12, §13, §14, §15

morning glory = assay: as above; format: in vivo; design: key: 0: No effect; 1: Growth of the root part was inhibited 50% or less compared with non-treated area.; 2: Growth of the root part was inhibited 50% or more compared with non-treated area.; 3: Growth of the root part was substantially inhibited.; 4: Germination was inhibited
Experimental: as §10, §11, §12, §13, §14, §15

velvet leaf [2] = assay: as above; format: in vivo; design: key: 0: No effect; 1: Growth of the root part was inhibited 50% or less compared with non-treated area.; 2: Growth of the root part was inhibited 50% or more compared with non-treated area.; 3: Growth of the root part was substantially inhibited.; 4: Germination was inhibited
Experimental: as §10, §11, §12, §13, §14, §15

[3] = sprayed liquid amount 1000 L/ha
[4] = 200 μM, 6 days (9a, 9b: 7 days)

SMILES	index on the plant growth inhibition effect (thale cress)	killing weed index, Japanese bristlegrass (Japanese bristlegrass; sprayed liquid amount 250 L/ha)	killing weed index, Japanese bristlegrass (Japanese bristlegrass; [3])	killing weed index, Purple amaranth (purple amaranth; sprayed liquid amount 250 L/ha)	killing weed index, Purple amaranth (purple amaranth; [3])	killing weed index, Southern crabgrass (southern crabgrass; sprayed liquid amount 250 L/ha)	killing weed index, Southern crabgrass (southern crabgrass; [3])	killing weed index, Velvet leaf (velvet leaf [1]; sprayed liquid amount 250 L/ha)	killing weed index, Velvet leaf (velvet leaf [1]; [3])	Index (thale cress)	plant growth inhibition index, Japanese millet (Japanese millet; [4])	plant growth inhibition index, Japanese millet (Japanese millet; 800 μM, 6 days)	plant growth inhibition index, Ragweed (Ragweed; [4])	plant growth inhibition index, Ragweed (Ragweed; 800 μM, 6 days)	plant growth inhibition index, Morning glory (morning glory; [4])	plant growth inhibition index, Morning glory (morning glory; 800 μM, 6 days)	plant growth inhibition index, Velvet leaf (velvet leaf [2]; [4])	plant growth inhibition index, Velvet leaf (velvet leaf [2]; 800 μM, 6 days)
O=C(O)c1cccn1OCCCC(F)(F)F [Compound 8i]	2 (Growth of the root part was inhibited 50% or more compared with non-treated area.)	1 (“1” when a killing weed rate is 19% to 10%)	3 (“3” when a killing weed rate is 39% to 30%)	0 (“0” when a killing weed rate is 9% to 0%)	0 (“0” when a killing weed rate is 9% to 0%)	2 (“2” when a killing weed rate is 29% to 20%)	2 (“2” when a killing weed rate is 29% to 20%)	0 (“0” when a killing weed rate is 9% to 0%)	0 (“0” when a killing weed rate is 9% to 0%)	–	–	–	–	–	–	–	–	–
CCCCCCCCCOn1cc(C)cc1C(=O)O [Compound 9c]	–	2 (“2” when a killing weed rate is 29% to 20%)	3 (“3” when a killing weed rate is 39% to 30%)	1 (“1” when a killing weed rate is 19% to 10%)	0 (“0” when a killing weed rate is 9% to 0%)	3 (“3” when a killing weed rate is 39% to 30%)	5 (“5” when a killing weed rate is 59% to 50%)	5 (“5” when a killing weed rate is 59% to 50%)	0 (“0” when a killing weed rate is 9% to 0%)	3	–	–	–	–	–	–	–	–
O=C(O)c1cccn1OCc1ccc(Oc2ccccc2)cc1 [Compound 8f]	3	–	–	–	–	–	–	–	–	–	3 (Growth of the stem and leave parts was inhibited 30% or more compared with non-treated area, or growth of the only root part was inhibited 60% or more compared with non-treated area.)	4 (Growth of the stem and leave parts was inhibited 40% or more compared with non-treated area, or growth of the only root part was inhibited 80% or more compared with non-treated area.)	0	5 (Growth of the stem and leave parts was inhibited 50% or more compared with non-treated area, or growth of the only root part was inhibited 100% or more compared with non-treated area.)	0	0	0	5 (Growth of the stem and leave parts was inhibited 50% or more compared with non-treated area, or growth of the only root part was inhibited 100% or more compared with non-treated area.)
CCCCCCCCCOn1cccc1C(=O)N1CCOCC1 [Compound 9h]	–	–	–	–	–	–	–	–	–	3	3 (Growth of the stem and leave parts was inhibited 30% or more compared with non-treated area, or growth of the only root part was inhibited 60% or more compared with non-treated area.)	6 (Growth of the stem and leave parts was inhibited 60% or more compared with non-treated area.)	0	6 (Growth of the stem and leave parts was inhibited 60% or more compared with non-treated area.)	0	4 (Growth of the stem and leave parts was inhibited 40% or more compared with non-treated area, or growth of the only root part was inhibited 80% or more compared with non-treated area.)	3 (Growth of the stem and leave parts was inhibited 30% or more compared with non-treated area, or growth of the only root part was inhibited 60% or more compared with non-treated area.)	5 (Growth of the stem and leave parts was inhibited 50% or more compared with non-treated area, or growth of the only root part was inhibited 100% or more compared with non-treated area.)

From patent US11685716B2, “Plant growth inhibiting agent, and plant growth inhibiting method using same” (NATIONAL UNIVERSITY CORPORATION KUMAMOTO UNIVERSITY, priority 2017, dated 2023)
